The structures appear in SMILES notation. Values joined by “and” are separate entries in the source; they are usually repeats but may differ in a detail not shown here. Equal entries are not always repeated. Inconclusive results and toxic doses are left out.

This passage reports T/C results from PubChem BioAssay AID308 (DTP/NCI, 2004).

The subject of the test is BDF1 mice, L1210 6-MP/6-TG resistant leukemia ip, survival T/C. As to the kind of experiment: NCI In Vivo Anticancer Drug Screen. Data for tumor model L1210 Leukemia resistant to 6-MP and 6-Thioguanine; NSC 755, NSC 752 (intraperitoneal) in B6D2F1 (BDF1) mice. The following applies: endpoint: mean survival time, higher = longer survival. The procedure:
The antitumor activity of compounds was measured in mice bearing transplantable tumors. Survival or tumor size were measured and the results are expressed as the measurement made in the treated group (T) divided by the measurement made in the vehicle treated control group (C). The tumor model used in this assay is L1210 Leukemia resistant to 6-MP and 6-Thioguanine; NSC 755, NSC 752 (intraperitoneal) in B6D2F1 (BDF1) mice

Where [1] appears, read: dose: 25.0 mg/kg/injection, schedule: Q01DX Z (ip), vehicle: carboxymethylcellulose (CMC).
[2] abbreviates: dose: 50.0 mg/kg/injection, schedule: Q01DX Z (ip), vehicle: carboxymethylcellulose (CMC).
Where [3] appears, read: dose: 250.0 mg/kg/injection, schedule: Q01DX Z (ip), vehicle: carboxymethylcellulose (CMC).

In the case of `CC(C)n1cnc2c(=S)nc[nH]c21`, the T/C was 96 % of control (dose: 2.5 mg/kg/injection, schedule: Q01DX015 (ip), vehicle: carboxymethylcellulose (CMC)); 96 % of control (dose: 5.0 mg/kg/injection, schedule: Q01DX015 (ip), vehicle: carboxymethylcellulose (CMC)); 96 % of control (dose: 10.0 mg/kg/injection, schedule: Q01DX015 (ip), vehicle: carboxymethylcellulose (CMC)); 94 % of control (dose: 20.0 mg/kg/injection, schedule: Q01DX015 (ip), vehicle: carboxymethylcellulose (CMC)); 86 % of control and 100 % of control (dose: 42.0 mg/kg/injection, schedule: Q01DX015 (ip), vehicle: carboxymethylcellulose (CMC)); 86 % of control (dose: 63.0 mg/kg/injection, schedule: Q01DX015 (ip), vehicle: carboxymethylcellulose (CMC)). Besides, the T/C (dose: 95.0 mg/kg/injection, schedule: Q01DX015 (ip), vehicle: carboxymethylcellulose (CMC)) was 86 % of control.

For the compound `CC(=O)OCC1OC(n2cnc3c(=S)nc(N)[nH]c32)C(OC(C)=O)C1OC(C)=O` (centres undefined), the T/C runs as follows: (dose: 1.0 mg/kg/injection, schedule: Q01DX Z (ip), vehicle: other) 89 % of control; (dose: 2.0 mg/kg/injection, schedule: Q01DX Z (ip), vehicle: other) 89 % of control; (dose: 4.0 mg/kg/injection, schedule: Q01DX Z (ip), vehicle: other) 101 % of control; (dose: 6.0 mg/kg/injection, schedule: Q01DX Z (ip), vehicle: other) 92 % of control; (dose: 12.5 mg/kg/injection, schedule: Q01DX Z (ip), vehicle: other) 98 % of control; (dose: 25.0 mg/kg/injection, schedule: Q01DX Z (ip), vehicle: other) 93 % of control.

Consider `CC(CCC(C)OS(C)(=O)=O)OS(C)(=O)=O` (centres undefined), for which the T/C is 112 % of control under setting [1]; 116 % of control (dose: 37.5 mg/kg/injection, schedule: Q01DX Z (ip), vehicle: carboxymethylcellulose (CMC)); 118 % of control under setting [2]; 98 % of control (dose: 75.0 mg/kg/injection, schedule: Q01DX Z (ip), vehicle: carboxymethylcellulose (CMC)).

Turning to `CN(C)[C@@H]1C(=O)C(C(=O)NCNc2nc3n[nH]nc3c(=O)[nH]2)=C(O)[C@@]2(O)C(=O)C3=C(O)c4c(O)cccc4[C@@](C)(O)[C@H]3C[C@@H]12`, the T/C is, setting by setting: (dose: 50.0 mg/kg/injection, schedule: Q01DX009 (ip), vehicle: saline) 100 % of control; (dose: 100.0 mg/kg/injection, schedule: Q01DX009 (ip), vehicle: saline) 104 % of control; (dose: 200.0 mg/kg/injection, schedule: Q01DX009 (ip), vehicle: saline) 100 % of control; (dose: 400.0 mg/kg/injection, schedule: Q01DX009 (ip), vehicle: saline) 100 % of control.

Turning to `CS(=O)(=O)OCCCl`, the T/C is, setting by setting: (dose: 75.0 mg/kg/injection, schedule: Q01DX Z (ip), vehicle: saline) 115 % of control; (dose: 100.0 mg/kg/injection, schedule: Q01DX Z (ip), vehicle: saline) 108 % of control; (dose: 150.0 mg/kg/injection, schedule: Q01DX Z (ip), vehicle: saline) 116 % of control.

For `CC(C)Cn1cnc2c(Sc3c([N+](=O)[O-])ncn3C)nc(N)nc21`, the T/C by setting is: (dose: 1.0 mg/kg/injection, schedule: Q01DX015 (ip), vehicle: other) 94 % of control; (dose: 2.0 mg/kg/injection, schedule: Q01DX015 (ip), vehicle: other) 92 % of control; (dose: 8.0 mg/kg/injection, schedule: Q01DX015 (ip), vehicle: other) 95 % of control; (dose: 12.5 mg/kg/injection, schedule: Q01DX015 (ip), vehicle: other) 100 % of control; (dose: 25.0 mg/kg/injection, schedule: Q01DX015 (ip), vehicle: other) 97 % of control; (dose: 50.0 mg/kg/injection, schedule: Q01DX015 (ip), vehicle: other) 90 % of control.

`CN(C)c1ccc(/C=C\c2ccnc3ccccc23)cc1`: the T/C runs as follows: (dose: 1.87 mg/kg/injection, schedule: Q01DX Z (ip), vehicle: carboxymethylcellulose (CMC)) 106 % of control; (dose: 3.75 mg/kg/injection, schedule: Q01DX Z (ip), vehicle: carboxymethylcellulose (CMC)) 97 % of control; (dose: 7.5 mg/kg/injection, schedule: Q01DX Z (ip), vehicle: carboxymethylcellulose (CMC)) 100 % of control; (dose: 15.0 mg/kg/injection, schedule: Q01DX Z (ip), vehicle: carboxymethylcellulose (CMC)) 91 % of control.

For the compound `CCn1cnc2c(SC3CCCC3)ncnc21`, the T/C was 98 % of control (dose: 125.0 mg/kg/injection, schedule: Q01DX Z (ip), vehicle: carboxymethylcellulose (CMC)) and 98 % of control under setting [3].

As to `Nn1cnc2c(=S)nc[nH]c21`, the T/C is 98 % of control (dose: 18.0 mg/kg/injection, schedule: Q01DX009 (ip), vehicle: other); 96 % of control (dose: 28.0 mg/kg/injection, schedule: Q01DX009 (ip), vehicle: other); 99 % of control (dose: 42.0 mg/kg/injection, schedule: Q01DX015 (ip), vehicle: other); 92 % of control (dose: 72.0 mg/kg/injection, schedule: Q01DX015 (ip), vehicle: other).

For the compound `Cn1cnc2c(SCc3ccccc3)ncnc21`, the T/C was 100 % of control (dose: 12.5 mg/kg/injection, schedule: Q01DX Z (ip), vehicle: carboxymethylcellulose (CMC)); 107 % of control under setting [1]; 100 % of control under setting [2]; 87 % of control (dose: 93.0 mg/kg/injection, schedule: Q01DX Z (ip), vehicle: carboxymethylcellulose (CMC)); 102 % of control (dose: 100.0 mg/kg/injection, schedule: Q01DX Z (ip), vehicle: carboxymethylcellulose (CMC)); 98 % of control (dose: 187.0 mg/kg/injection, schedule: Q01DX Z (ip), vehicle: carboxymethylcellulose (CMC)). In addition, the T/C under setting [3] is 92 % of control.

For the compound `CN(Cc1cnc2nc(N)nc(N)c2n1)c1ccc(C(=O)N[C@@H](CCC(=O)O)C(=O)O)cc1`, the T/C is 172 % of control (dose: 0.6 mg/kg/injection, schedule: Q02DX010 (ip), vehicle: carboxymethylcellulose (CMC)); 163 % of control (dose: 0.9 mg/kg/injection, schedule: Q02DX010 (ip), vehicle: carboxymethylcellulose (CMC)); 220 % of control (dose: 1.3 mg/kg/injection, schedule: Q02DX010 (ip), vehicle: carboxymethylcellulose (CMC)); 261 % of control (dose: 2.0 mg/kg/injection, schedule: Q02DX010 (ip), vehicle: carboxymethylcellulose (CMC)); 282 % of control (dose: 3.0 mg/kg/injection, schedule: Q02DX010 (ip), vehicle: carboxymethylcellulose (CMC)); 294 % of control (dose: 4.5 mg/kg/injection, schedule: Q02DX010 (ip), vehicle: carboxymethylcellulose (CMC)). Also, the T/C (dose: 6.75 mg/kg/injection, schedule: Q02DX010 (ip), vehicle: carboxymethylcellulose (CMC)) is 290 % of control.
